Data published in PMC8359613, “An essential vesicular-trafficking phospholipase mediates neutral lipid synthesis and contributes to hemozoin formation in Plasmodium falciparum” (BMC Biology, 2021).

Molecular target: T1, PfLPL1 (Plasmodium falciparum, UniProt Q8IK69)
T1 construct: gene PF3D7_1476700; full length 1-353, expressed from pETM-41 in E. coli BL21(DE3); Ni-NTA then amylose resin (implies His-MBP fusion)
T1 sequence (Q8IK69 1-353): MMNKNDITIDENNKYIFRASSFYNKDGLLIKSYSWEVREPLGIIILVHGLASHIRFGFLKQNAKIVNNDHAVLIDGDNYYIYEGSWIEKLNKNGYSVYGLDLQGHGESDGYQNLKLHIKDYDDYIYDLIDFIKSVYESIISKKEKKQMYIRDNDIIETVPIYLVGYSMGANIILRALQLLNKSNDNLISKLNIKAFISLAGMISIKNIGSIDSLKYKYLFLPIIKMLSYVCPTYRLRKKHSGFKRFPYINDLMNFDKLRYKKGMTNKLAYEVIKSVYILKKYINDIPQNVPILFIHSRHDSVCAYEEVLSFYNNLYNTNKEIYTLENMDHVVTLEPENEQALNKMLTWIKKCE
Experiment: coupled Amplex Red fluorescence assay (GPC phosphodiesterase, choline oxidase, HRP)
Format: biochemical
Conditions: substrate 0-70 µM; Tris-HCl, CaCl2, pH 8.0; room temperature; acyl chain of LPC not stated; reaction mix lists 0.5 mM lecithin

Q: LPC was tested. Which Km did it give?
A: The Km was 61.2 ± 5.9 µM.
